Test results as given in article PMC6753678, “Fueling Open Innovation for Malaria Transmission-Blocking Drugs: Hundreds of Molecules Targeting Early Parasite Mosquito Stages” (Frontiers in Microbiology, 2019).
pIC50: −log10 of the molar value. Read-outs that look alike come from different tables or passages of the source.

Assays:
[1] = test system: P. berghei ookinete development; conditions: for % inhibition, Replicate A / % inhibition, Replicate B: primary screen at 1 μM
[2] = test system: 3D7-strain P. falciparum asexual parasites; assay: P. falciparum asexual growth inhibition assay (Pf GIA); type: cell-based, Plasmodium falciparum; conditions: dose response confirmation; read-out: Pf asexual growth inhibition assays IC50
Outline: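 Read-out was lactate dehydrogenase activity measured by absorbance at 650 nm after freezing and thawing, against 50 μM chloroquine and DMSO controls. Before that, asexual 3D7 cultures (0.25% parasitemia, 2% hematocrit) had 72 h dose-response compound exposure at 37°C in 5% CO2/5% O2/90% N2; three independent replicates averaged.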

[3] = test system: HepG2 cells; assay: HepG2 cytotoxicity assay; conditions: for Pb ODA (this manuscript) HepG2 cytoxicity: HepG2 cytotoxicity listed with the Pb ODA data set (this manuscript); for pIC50: read-out: HepG2 cytotoxicity assay IC50, dose response confirmation
Outline: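 Cells at 2,500 per well in MEM with 10% fetal bovine serum and 1% NEAA were exposed to test compounds for 48 h at 37°C, 5% CO2. Viability was read by fluorescence, with percent inhibition calculated against 50 μM doxorubicin (positive) and DMSO (negative) controls.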

[4] = read-out: Pb ODA (this manuscript) IC50, P. berghei ookinete development assay, this manuscript
[5] = read-out: Pb Ookinete development assay IC50, dose response confirmation
[6] = read-out: Pb ODA IC50, this manuscript
[7] = HepG2 values of the three screens unified
[8] = unified HepG2 value across the three screens

Row | SMILES | Is compound selective in assay? Pb ODA active? [1] | % inhibition, Replicate A [1] [%] | % inhibition, Replicate B [1] [%] | pIC50 [1, 4] | pIC50 [1, 5] | pIC50 [2] | Pb ODA (this manuscript) HepG2 cytoxicity [3] [µM] | pIC50 [3] | Is compound selective in assay? Pb ODA active? ([1]; 1: YES, 0: NO) | pIC50 [1, 6] | HepG2 cytoxicity (Pb ODA, this manuscript) [3] [µM] | Unified cytotox [3, 7] [µM] | Unified cytotox [3, 8] [µM] | % inhibition, Replicate A ([1]; 1 µM) [%] | % inhibition, Replicate B ([1]; 1 µM) [%]
1 | Cc1[nH]c(C)c(-c2ccc(C(=O)c3ccc(Cl)cc3)cc2)c(=O)c1Cl [TCMDC-137413] | 1 (key: 1: YES; 0: NO) | 122.85 | 129.69 | 6.77 | 6.77 | 6.93 | 100.00 | 4.00 | – | – | – | – | – | – | –
2 | Cc1[nH]c(C)c(-c2ccc(S(=O)(=O)c3ccc(Cl)cc3)cc2)c(=O)c1Br [TCMDC-137414] | 1 (key: 1: YES; 0: NO) | 109.11 | 112.52 | 6.96 | 6.95 | 7.18 | 100.00 | 4.00 | – | – | – | – | – | – | –
3 | Cc1cc(=O)c(-c2cccc(Oc3ccc(Cl)cc3)c2)c(C)[nH]1 [TCMDC-137415] | – | 51.13 | 85.04 | – | 6.15 | 6.40 | – | 4.45 | 1 (1: YES) | 6.15 | 35.48 | 35.48 | – | – | –
4 | Cc1[nH]c(C)c(-c2ccc(-c3ccc(Cl)cc3)cc2)c(=O)c1Cl [TCMDC-137416] | 1 (key: 1: YES; 0: NO) | 59.25 | 97.22 | 5.61 | 5.61 | 6.42 | 57.54 | 4.24 | – | – | – | – | – | – | –
5 | Cc1[nH]c(C)c(C2CCC(c3ccc(Cl)cc3)CC2)c(=O)c1Cl (stereo not drawn) [TCMDC-137423] | – | 93.67 | 102.07 | – | 7.12 | 7.36 | – | 5.65 | 1 (1: YES) | 7.12 | – | – | 2.24 | – | –
6 | Cc1nc(C)c(-c2ccc(Cl)cc2)c(O)c1I [TCMDC-137424] | 1 (key: 1: YES; 0: NO) | 40.29 | 60.84 | 5.74 | 5.74 | 6.62 | 100.00 | 4.00 | – | – | – | – | – | – | –
7 | CCCCCCCc1c(C)[nH]c2ccccc2c1=O [TCMDC-137425] | 1 (key: 1: YES; 0: NO) | 71.66 | 86.67 | 6.41 | 6.41 | 6.65 | 100.00 | 4.00 | – | – | – | – | – | – | –
8 | COc1ccc2c(=O)c(Br)c(C)[nH]c2c1 [TCMDC-137426] | 1 (key: 1: YES; 0: NO) | 81.77 | 82.46 | 6.32 | 6.32 | 6.07 | 100.00 | 4.00 | – | – | – | – | – | – | –
9 | Cc1[nH]c2ccccc2c(=O)c1Br [TCMDC-137427] | 1 (key: 1: YES; 0: NO) | 55.99 | 67.98 | – | 5.80 | 5.47 | 100.00 | 4.00 | – | – | – | – | – | – | –
10 | Cc1[nH]c(C)c(-c2ccc(C(F)(F)F)cc2)c(=O)c1Br [TCMDC-137429] | 1 (key: 1: YES; 0: NO) | 133.13 | 107.96 | 6.19 | 6.19 | 6.43 | 100.00 | 4.00 | – | – | – | – | – | – | –
11 | CCCCCCCCc1c(C)[nH]c(C)c(C#N)c1=O [TCMDC-137431] | – | 93.99 | 59.83 | – | 6.34 | 6.10 | – | 4.46 | 1 (1: YES) | – | – | – | 34.67 | – | –
12 | CCCCC1=CC2C(=O)C(C(=O)OC)=CN=C2C=C1OCc1ccccc1 (stereo not drawn) [TCMDC-137492] | – | 85.39 | 106.84 | – | 5.52 | 6.85 | – | 4.00 | 1 (1: YES) | 5.52 | – | – | 100.00 | – | –
13 | CCCCOc1cc2ncc(C(=O)OCC)c(O)c2cc1OCCCC [TCMDC-137523] | – | 74.60 | 95.02 | – | 5.66 | 7.20 | – | 4.00 | 1 (1: YES) | 5.66 | – | – | 100.00 | – | –
14 | Cc1cc(O)c(-c2ccc(Oc3ccc(F)cc3)cc2)c(C)n1 [TCMDC-137535] | – | 57.60 | 38.98 | – | 6.23 | 5.99 | – | 6.55 | 0 (0: NO) | 6.24 | 0.28 | 0.28 | – | – | –
15 | Cc1cc(=O)c(-c2ccc(Oc3cccc(C(F)(F)F)c3)cc2)c(C)[nH]1 [TCMDC-137536] | 1 (key: 1: YES; 0: NO) | – | – | 5.58 | 5.58 | 5.49 | 100.00 | 4.00 | – | – | – | – | – | 91.76 | 80.63
16 | CCCCCCCCc1c(C)[nH]c(C)c(Cl)c1=O [TCMDC-137538] | – | 94.00 | 90.22 | – | 6.88 | 6.99 | – | 5.32 | 1 (1: YES) | 6.89 | – | – | 4.79 | – | –
17 | CCN1CCN(CCNc2c3ccccc3nc3ccccc23)CC1.Cl [TCMDC-137545] | – | 68.50 | 47.85 | – | 5.75 | 6.22 | – | 4.93 | 0 (0: NO) | 5.75 | 11.75 | 11.75 | – | – | –
18 | CCN1CCN(CCCNc2c3ccccc3nc3ccccc23)CC1.Cl [TCMDC-137546] | – | 55.87 | 53.70 | – | 5.52 | 6.21 | – | 5.04 | 0 (0: NO) | 5.52 | 9.12 | 9.12 | – | – | –
19 | CC(C)N1CCN(CCCNc2c3ccccc3nc3ccccc23)CC1.Cl [TCMDC-137547] | – | 29.07 | 62.42 | – | 5.43 | 6.29 | – | 4.84 | 0 (0: NO) | 5.43 | 14.45 | 14.45 | – | – | –
20 | CCCN1CCN(CCNc2c3ccccc3nc3ccccc23)CC1 [TCMDC-137549] | – | 61.15 | 52.76 | – | 5.70 | 6.02 | – | 5.13 | 0 (0: NO) | 5.70 | 7.41 | 7.41 | – | – | –
21 | Cl.c1ccc(CN2CCN(CCNc3c4ccccc4nc4ccccc34)CC2)cc1 [TCMDC-137571] | – | 19.05 | 55.37 | – | 5.54 | 6.35 | – | 4.62 | 0 (0: NO) | 5.54 | 23.99 | 23.99 | – | – | –
22 | CC(C)N1CCN(CCCCNc2c3ccccc3nc3ccccc23)CC1.Cl [TCMDC-137573] | – | 42.86 | 78.36 | – | 5.54 | 8.00 | – | 5.24 | 0 (0: NO) | 5.54 | 5.75 | 5.75 | – | – | –
23 | CCCN1CCN(CCCCNc2c3ccccc3nc3ccccc23)CC1.Cl [TCMDC-137576] | – | 35.45 | 63.99 | – | 5.63 | 6.62 | – | 5.27 | 0 (0: NO) | 5.63 | 5.37 | 5.37 | – | – | –
24 | CCOC(=O)N1CCN(CCCCNc2c3ccc(Cl)cc3nc3ccc(OC)cc23)CC1.Cl [TCMDC-137579] | 0 (key: 1: YES; 0: NO) | 26.46 | 54.23 | 5.35 | 5.35 | 7.52 | 5.50 | 5.26 | – | – | – | – | – | – | –
25 | COc1ccc2nc3cc(Cl)ccc3c(NCCCN3CCNCC3)c2c1.Cl [TCMDC-137580] | 0 (key: 1: YES; 0: NO) | 53.44 | 35.84 | 5.77 | 5.78 | 7.25 | 14.79 | 4.83 | – | – | – | – | – | – | –
